Legend:
[1] = tested on: T. b. brucei procyclic trypanosomes (Lab 110 EATRO strain); assay: In vitro antitrypanosomal activity, procyclic trypanosomes in T2 medium; format: cell-based, Trypanosoma brucei brucei; settings: Trypanosoma brucei, 3-5 days
Procedure: The antitrypanosomal effects of HETA and other nucleosides were examined in the Lab 110 EATRO strain of T. b. brucei in culture.
Cells were cultured as described in Bacchi et al. Exp. Parasitol. 68, 392, 1989. Cells were then grown in the presence of the compounds for 3-5 days. Drugs were filtered, sterilized and added aseptically. Control cells achieved a maximum density of 1.5-3.5×10^7 /ml. Hemocytometer counts were made daily and the results were expressed as a percent of control growth. IC50 plots were obtained by graphing log (drug) vs. percent growth inhibition.
Trypanocidal Activity of MTA and MTR Analogs
against T. b. brucei procyclic trypanosomes in T2 medium.

[2] = tested on: Plasmodium falciparum (Strain FCR-3: ATCC #30932); assay: Antimalarial activity in vitro, 3H-hypoxanthine incorporation; format: cell-based; settings: strain FCR-3, in vitro
Procedure: P. falciparum was cultured by the method of Trager and Jensen (1976). The FCR-3 strain was used for all experiments. For enzyme measurements, parasites were isolated from infected red cells by saponin lysis and stored at -70° C.
To determine drug effects, ^3 H-hypoxanthine incorporation was measured in the following manner. Infected red cells and varying concentrations of drugs were aliquoted in triplicate wells of a 96-well microtiter plate (Corning). Each well contained a total volume of 200 μl with a final hematocrit of 5 percent and parasitemia of 0.5-1%. The microtiter plates were incubated at 37° C. in candle jars. ^3 H-hypoxanthine (0.5 μCi) was added to each well after 24 hours. After an additional 24 hours of incubation, the parasites were harvested using a PHD cell harvester (Cambridge Technologies). Filters were immersed in Aquasol (New England Nuclear) and counted using a LKB rack beta scintillation counter.
*Concentration which inhibits growth by 50% when compared to untreated,
control cultures, and under defined assay conditions.

P. falciparum = assay: In vitro antimalarial activity of HETA; format: cell-based, Plasmodium falciparum; settings: P. falciparum in vitro screen
[3] = substrate: CSC[C@H]1O[C@@H](n2cnc3c(N)ncnc32)[C@H](O)[C@@H]1O; assay: Mouse liver MTA phosphorylase substrate/inhibitor assay; format: biochemical; settings: other: mouse liver MTA phosphorylase
Procedure: ^a MTA phosphorylase activity was assayed as described in Sufrin et

CCSC[C@H]1OC(O)[C@H](O)[C@@H]1O (stereo partly shown) [ETR, 5-deoxy-5-(ethylthio)ribose, reference compound] showed an IC50 [1] of over 100 µM and an IC50 [2] of over 1000 µM.

OC1O[C@H](CSCCF)[C@@H](O)[C@H]1O (stereo partly shown) [MFETR, 5-deoxy-5-(monofluoroethylthio)ribose] gave an IC50 [2] of 700 µM.

OCCSC[C@H]1OC(O)[C@H](O)[C@@H]1O (stereo partly shown) [HETR, 5-deoxy-5-(hydroxyethylthio)ribose] was tested, and the IC50 [1] was over 100 µM, the “growth of the microorganism inhibited in an in vitro screen” value (P. falciparum) was “not” and the IC50 [2] was over 1000 µM.

B1: Mouse Liver MTA Phosphorylase (Mus musculus) (protein)
chain: MASGSACTAVKIGIIGGTGLDDPEILEGRTEKYVDTPFGKPSDALILGKIKNVDCVLLARHGRQHTIMPSKVNYQANIWALKEEGCTHVIVTTACGSLREEIQPGDMVIIDQFIDRTSLRPQTFYDGSHCSARGVCHIPMAEPFCPKTREVLIETAKKLGLRCHSKGTIVTIEGPRFSSRAESLIFRTWGADVVNMTTVPEVVLAKEAGICYASIAMATDYDCWKEHEEAVSVDGVLKTMKENANKAKSLLLTTIPQIGSMEWSETLRNLKNMAQFSVLPPRH
notes: of Mouse Liver MTA Phosphorylase; from tissue; host or cells: mouse liver
With B1 the Km [3] was 1.3 µM.
